According to publication PMC6695355, “Alanine Scanning Studies of the Antimicrobial Peptide Aurein 1.2” (Probiotics and Antimicrobial Proteins, 2018):
Values after ≈ are worked out from the molar mass of the structure shown. Where a SMILES comes first, the peptide text is derived from it.

Assays:
S. aureus ATCC 25923 = type: cell-based, Staphylococcus aureus; details: ATCC 25923, 18 h
Experimental: (§1) The minimum inhibitory concentrations (MICs) of test compounds were assessed by broth microdilution method on 96-well plates, according to the guidelines of Clinical and Laboratory Standards Institute (CLSI). For this purpose, reference strains of bacteria: S. aureus ATCC 25923, E. faecalis PCM 2673, E. coli ATCC 25922, and P. aeruginosa ATCC 9027; and fungus: C. albicans ATCC 10231 were used (The Polish Collection of Microorganism, Polish Academy of Sciences, Wrocław, Poland). Bacteria at initial inoculums of 0.5 × 10^5 CFU/mL in Mueller Hinton Broth (MHB), and fungi at initial inoculums of 2 × 10^3 CFU/mL in RPMI-1640, were exposed to the compounds over the concentration range of 1–512 μg/mL. The polystyrene plates were incubated at 37 °C for 18 h with bacteria and for 24 h with C. albicans. The MIC was taken as the lowest concentration at which a noticeable growth of microorganisms was inhibited. Minimum biofilm eradication concentrations (MBECs) were determined using a previously described protocol. For this purpose, 96-well polystyrene flat-bottom plates and a resazurin (7-hydroxy-3H-phenoxazin-3-one 10-oxide) were used. In this assay, a specific feature of resazurin is utilized, which upon the contact with living cells is metabolized and reduced from the basic blue form to pink resorufin. Briefly, 24-h cultures of microorganisms were diluted 1,000-fold and 100 μL of that suspension was added into the test plates. After 24 h of incubation at 37 °C, the wells of the plates were rinsed three times with phosphate buffer saline (PBS) to remove non-adherent cells. Subsequently, 100 μL of test compounds in concentration range (diluted in appropriate media) were added to each well. After 24 h of incubation at 37 °C, 20 μL of the resazurin (4 mg/mL) was added. The MBEC was read after 1 h. Additionally, anti-adhesive properties of the compounds were also analyzed. The assay was conducted on 96-well polystyrene flat-bottom plates. The preparation of inoculums was followed by a 500-fold dilution of 24-h cultures of microorganisms. Briefly, to evaluate the effect of the peptides in preventing biofilm formation, 50 μL of compounds in concentration range, diluted in appropriate medium, were prepared. Subsequently, the 50 μL of the bacterial/fungal inoculums were added to reach the same microbial density as that in MBEC assay. After 24 h of incubation at 37 °C, the wells were rinsed three times with PBS and the fresh media with resazurin (0.6 mg/mL) were added. Then, after 1 h of incubation, the minimum biofilm inhibitory concentrations (MBIC) were read. MBECs as well as MBICs were determined as the lowest concentration at which the reduction of resazurin was lower or equal (10% ± 0.5%) as compared to positive (100%) and negative (0%) controls. All experiments were performed in triplicate.

[1] = tested on: S. aureus ATCC 25923 biofilm formation; type: cell-based, Staphylococcus aureus; details: ATCC 25923, 24 h
Experimental: as §1

[2] = tested on: S. aureus ATCC 25923 biofilm; type: cell-based, Staphylococcus aureus; details: ATCC 25923, 24 h
Experimental: as §1

P. aeruginosa ATCC 9027 = type: cell-based, Pseudomonas aeruginosa; details: ATCC 9027, 18 h
Experimental: as §1

[3] = tested on: P. aeruginosa ATCC 9027 biofilm formation; type: cell-based, Pseudomonas aeruginosa; details: ATCC 9027, 24 h
Experimental: as §1

[4] = tested on: P. aeruginosa ATCC 9027 biofilm; type: cell-based, Pseudomonas aeruginosa; details: ATCC 9027, 24 h
Experimental: as §1

[5] = tested on: human red blood cells (RBCs); assay: Hemolysis assay; type: cell-based; details: red cells of human, 1 h
Experimental: The hemolytic activity of the peptides was determined using fresh human red blood cells (RBCs) collected from a healthy human donor according to the procedure described in the literature. Fresh RBCs with EDTA as anticoagulant were rinsed three times with a PBS by centrifugation at 800×g for 10 min and resuspension in PBS. Serial dilution of the peptides in PBS (1–256 μg/mL) on 96-well polystyrene plates was prepared and the stock solution of RBCs was added up to a final volume of 100 μL with a 4% concentration of erythrocytes (v/v). The control wells for 0 and 100% hemolysis contained of RBCs suspended in PBS and 1% of Triton-X 100, respectively. Subsequently, the plates were incubated for 1 h at 37 °C and then centrifuged at 800×g for 10 min at 4 °C (Sorvall ST 16R Centrifuge, Thermo Scientific). After centrifugation, the supernatant was carefully […] to new microtiter plates and the release of hemoglobin was measured at 540 nm (Multiskan™ GO Microplate Spectrophotometer, Thermo Scientific). All experiments were conducted in triplicate.

[6] = tested on: E. coli ATCC 25922 biofilm formation; type: cell-based, Escherichia coli; details: ATCC 25922, 24 h
Experimental: as §1

E. coli ATCC 25922 = type: cell-based, Escherichia coli; details: ATCC 25922, 18 h
Experimental: as §1

[7] = tested on: E. coli ATCC 25922 biofilm; type: cell-based, Escherichia coli; details: ATCC 25922, 24 h
Experimental: as §1

E. faecalis PCM 2673 = type: cell-based, Enterococcus faecalis; details: PCM 2673, 18 h
Experimental: as §1

[8] = tested on: E. faecalis PCM 2673 biofilm; type: cell-based, Enterococcus faecalis; details: 24 h
Experimental: as §1

[9] = tested on: E. faecalis PCM 2673 biofilm formation; type: cell-based, Enterococcus faecalis; details: 24 h
Experimental: as §1

in vitro = in vitro ADME; details: bovine, serum
Experimental: To assess serum stability, the peptides (0.5 mg) were dissolved in 4 mL of 25% (v/v) fetal bovine serum (FBS) in PBS and incubated at 37 °C. The aliquots of 100 μL of the test samples were transferred to 96-well polystyrene plates in triplicate for each time point. Samples were quenched at zero time (t0) and after 6 h of incubation at 37 °C by addition of 100 μL of ice-cold acetonitrile and stored at 4 °C for 10 min. Afterwards, the samples were centrifuged at 13,000×g for 20 min at 4 °C and diluted 1:1 with HPLC-grade water. All samples were analyzed using the Waters Alliance e2695 system with Waters Acquity QDa Detector (software–Empower®3). Analyses were conducted on an Agilent Zorbax SB-C18 RP-18 column (4.6 × 50 mm, 1.8-μm particle size, 80-Å pore size) using a linear 30–60% acetonitrile (B) gradient in deionized water (A) over 6 min at 25.0 ± 0.1 °C, at a flow rate of 0.5 mL/min and MS working in selected ion recording (SIR) mode (A—0.1% aqueous formic acid (FA) and B—0.1% FA in acetonitrile). The percentage of peptide remaining intact was calculated from peak areas of samples at t0 and after 6 h of incubation in serum (the % of remaining peptide = peak area after 6 h/peak area at t0). The mass-to-charge ratios selected for SIR mode were based on values obtained from full spectrum analysis of each peptide and are presented in Table 1.

C. albicans ATCC 10231 = type: cell-based, Candida albicans; details: ATCC 10231, 24 h
Experimental: as §1

[10] = tested on: C. albicans ATCC 10231 biofilm formation; type: cell-based, Candida albicans; details: ATCC 10231, 24 h
Experimental: as §1

[11] = tested on: C. albicans ATCC 10231 biofilm; type: cell-based, Candida albicans; details: ATCC 10231, 24 h
Experimental: as §1

Row | Compound | MIC, S. aureus ATCC 25923 (S. aureus ATCC 25923) [µg/mL] | MBIC, S. aureus ATCC 25923 [1] [µg/mL] | MBEC, S. aureus ATCC 25923 [2] [µg/mL] | MIC, P. aeruginosa ATCC 9027 (P. aeruginosa ATCC 9027) [µg/mL] | MBIC, P. aeruginosa ATCC 9027 [3] [µg/mL] | MBEC, P. aeruginosa ATCC 9027 [4] [µg/mL] | Percentage of hemolysis at 1 μg/mL [5] [%] | Percentage of hemolysis at 2 μg/mL [5] [%] | Percentage of hemolysis at 4 μg/mL [5] [%] | Percentage of hemolysis at 8 μg/mL [5] [%] | Percentage of hemolysis at 16 μg/mL [5] [%] | Percentage of hemolysis at 32 μg/mL [5] [%] | Percentage of hemolysis at 64 μg/mL [5] [%] | Percentage of hemolysis at 128 μg/mL [5] [%] | Percentage of hemolysis at 256 μg/mL [5] [%] | MBIC, E. coli ATCC 25922 [6] [µg/mL] | MIC, E. coli ATCC 25922 (E. coli ATCC 25922) [µg/mL] | MBEC, E. coli ATCC 25922 [7] [µg/mL] | MIC, E. faecalis PCM 2673 (E. faecalis PCM 2673) [µg/mL] | MBEC, E. faecalis PCM 2673 [8] [µg/mL] | further results
1 | CC[C@H](C)[C@H](NC(=O)[C@H](CCCCN)NC(=O)[C@H](CCCCN)NC(=O)[C@H](C)NC(=O)[C@@H](NC(=O)[C@H](CC(=O)O)NC(=O)[C@H](Cc1ccccc1)NC(=O)[C@H](CC(C)C)NC(=O)CN)[C@@H](C)CC)C(=O)N[C@@H](C)C(=O)N[C@@H](CCC(=O)O)C(=O)N[C@@H](CO)C(=O)N[C@@H](Cc1ccccc1)C(N)=O [Peptide I6A] (H-GLFDIAKKIAESF-NH2) | > 512 | > 512 | > 512 | > 512 | > 512 | > 512 | 0.4 | 0.6 | 0.5 | 0.3 | 0.1 | 0.0 | 0.1 | 0.1 | 0.1 | 512 | 512 (≈ 356 µM) | > 512 | 256 (≈ 178 µM) | > 512 | MBIC, E. faecalis PCM 2673 [9]: > 512 µg/mL; remaining at 6 h, 0.125 mg/mL (in vitro): 29%; MIC, C. albicans ATCC 10231 (C. albicans ATCC 10231): 256 µg/mL (≈ 178 µM); MBIC, C. albicans ATCC 10231 [10]: 4 µg/mL; MBEC, C. albicans ATCC 10231 [11]: > 512 µg/mL
2 | CC[C@H](C)[C@H](NC(=O)[C@H](CC(=O)O)NC(=O)[C@H](Cc1ccccc1)NC(=O)[C@H](CC(C)C)NC(=O)CN)C(=O)N[C@H](C(=O)N[C@@H](CCCCN)C(=O)N[C@@H](CCCCN)C(=O)N[C@@H](C)C(=O)N[C@@H](C)C(=O)N[C@@H](CCC(=O)O)C(=O)N[C@@H](CO)C(=O)N[C@@H](Cc1ccccc1)C(N)=O)[C@@H](C)CC [Peptide I9A] (H-GLFDIIKKAAESF-NH2) | > 512 | > 512 | > 512 | > 512 | > 512 | > 512 | 0.6 | 0.6 | 0.3 | 0.1 | 0.0 | 0.0 | 0.0 | 0.0 | 0.0 | >512 | 512 (≈ 356 µM) | > 512 | 128 (≈ 89 µM) | > 512 | MBIC, E. faecalis PCM 2673 [9]: > 512 µg/mL; remaining at 6 h, 0.125 mg/mL (in vitro): 6%; MIC, C. albicans ATCC 10231 (C. albicans ATCC 10231): 512 µg/mL (≈ 356 µM); MBIC, C. albicans ATCC 10231 [10]: 16 µg/mL; MBEC, C. albicans ATCC 10231 [11]: > 512 µg/mL
3 | CC[C@H](C)[C@H](NC(=O)[C@H](CCCCN)NC(=O)[C@H](CCCCN)NC(=O)[C@@H](NC(=O)[C@@H](NC(=O)[C@H](CC(=O)O)NC(=O)[C@H](Cc1ccccc1)NC(=O)[C@H](C)NC(=O)CN)[C@@H](C)CC)[C@@H](C)CC)C(=O)N[C@@H](C)C(=O)N[C@@H](CCC(=O)O)C(=O)N[C@@H](CO)C(=O)N[C@@H](Cc1ccccc1)C(N)=O [Peptide L2A] (H-GAFDIIKKIAESF-NH2) | > 512 | > 512 | > 512 | 512 (≈ 356 µM) | > 512 | > 512 | 0.3 | 0.6 | 0.4 | 0.2 | 0.0 | 0.0 | 0.0 | 0.0 | 0.0 | 512 | 256 (≈ 178 µM) | 512 | 512 (≈ 356 µM) | > 512 | MBIC, E. faecalis PCM 2673 [9]: > 512 µg/mL; remaining at 6 h, 0.125 mg/mL (in vitro): 6%; MIC, C. albicans ATCC 10231 (C. albicans ATCC 10231): 256 µg/mL (≈ 178 µM); MBIC, C. albicans ATCC 10231 [10]: 8 µg/mL; MBEC, C. albicans ATCC 10231 [11]: > 512 µg/mL
